{"source": "patent US8802597B2", "about": "“Herbicidal pyrimidines” (E I du Pont de Nemours and Company, priority 2003, dated 2014)", "test_in_all_cases": "Test G pre/postemergence", "type_in_all_cases": "in vivo", "conditions_in_all_cases": "Preemergence", "key": {"[1]": {"test_system": "goosegrass (Eleusine indica)", "outline": "(§1)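 Test chemicals in a non-phytotoxic solvent blend with surfactant are applied to soil after seeding or to foliage of 2–18 cm seedlings. Greenhouse response is scored visually at 12–21 days on a 0 to 100 control scale.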"}, "[2]": {"test_system": "Surinam grass (Brachiaria decumbens)", "outline": "as §1"}, "[3]": {"test_system": "guineagrass (Panicum maximum)", "outline": "as §1"}, "[4]": {"test_system": "downy bromegrass (Bromus tectorum)", "outline": "as §1"}, "[5]": {"test_system": "common ragweed (Ambrosia elatior)", "outline": "as §1"}, "[6]": {"test_system": "bermudagrass (Cynodon dactylon)", "outline": "as §1"}, "[7]": {"test_system": "johnsongrass (Sorghum halepense)", "outline": "as §1"}, "[8]": {"test_system": "quackgrass (Elytrigia repens)", "outline": "as §1"}, "[9]": {"test_system": "common chickweed (Stellaria media)", "outline": "as §1"}, "[10]": {"test_system": "Italian ryegrass (Lolium multiflorum)", "outline": "as §1"}, "[11]": {"test_system": "black mustard (Brassica nigra)", "outline": "as §1"}, "[12]": {"test_system": "prickly sida (Sida spinosa)", "outline": "as §1"}, "[13]": {"test_system": "common mallow (Malva sylvestris)", "outline": "as §1"}, "[14]": {"test_system": "tropical spiderwort (Commelina benghalensis)", "outline": "as §1"}}, "data": [{"smiles": "CCOC(=O)c1nc(C2CC2)nc(N)c1Cl", "note": "[Compound 4, ethyl 6-amino-5-chloro-2-cyclopropyl-4-pyrimidinecarboxylate]", "values": [{"measurement": "Plant response rating, Goosegrass", "setting": "[1]; 62 g ai/ha, scale 0-100", "result": 10}, {"measurement": "Plant response rating, Goosegrass", "setting": "[1]; 125 g ai/ha, scale 0-100", "result": 60}, {"measurement": "Plant response rating, Goosegrass", "setting": "[1]; 250 g ai/ha, scale 0-100", "result": 70}, {"measurement": "Plant response rating, Goosegrass", "setting": "[1]; 500 g ai/ha, scale 0 to 100", "result": 90}, {"measurement": "Plant response rating, Surinam Grass", "setting": "[2]; 62 g ai/ha, scale 0-100", "result": 30}, {"measurement": "Plant response rating, Surinam Grass", "setting": "[2]; 125 g ai/ha, scale 0-100", "result": 60}, {"measurement": "Plant response rating, Surinam Grass", "setting": "[2]; 250 g ai/ha, scale 0-100", "result": 80}, {"measurement": "Plant response rating, Surinam Grass", "setting": "[2]; 500 g ai/ha, scale 0 to 100", "result": 95}, {"measurement": "Plant response rating, Guineagrass", "setting": "[3]; 62 g ai/ha, scale 0-100", "result": 95}, {"measurement": "Plant response rating, Guineagrass", "setting": "[3]; 125 g ai/ha, scale 0-100", "result": 95}, {"measurement": "Plant response rating, Guineagrass", "setting": "[3]; 250 g ai/ha, scale 0-100", "result": 100}, {"measurement": "Plant response rating, Guineagrass", "setting": "[3]; 500 g ai/ha, scale 0 to 100", "result": 100}, {"measurement": "Plant response rating, Bromegrass, Downy", "setting": "[4]; 62 g ai/ha, scale 0-100", "result": 30}, {"measurement": "Plant response rating, Bromegrass, Downy", "setting": "[4]; 125 g ai/ha, scale 0-100", "result": 70}, {"measurement": "Plant response rating, Bromegrass, Downy", "setting": "[4]; 250 g ai/ha, scale 0-100", "result": 100}, {"measurement": "Plant response rating, Bromegrass, Downy", "setting": "[4]; 500 g ai/ha, scale 0 to 100", "result": 100}, {"measurement": "Plant response rating, Ragweed", "setting": "[5]; 62 g ai/ha, scale 0-100", "result": 80}, {"measurement": "Plant response rating, Ragweed", "setting": "[5]; 125 g ai/ha, scale 0-100", "result": 100}, {"measurement": "Plant response rating, Ragweed", "setting": "[5]; 250 g ai/ha, scale 0-100", "result": 100}, {"measurement": "Plant response rating, Ragweed", "setting": "[5]; 500 g ai/ha, scale 0 to 100", "result": 100}, {"measurement": "Plant response rating, Bermudagrass", "setting": "[6]; 62 g ai/ha, scale 0-100", "result": 20}, {"measurement": "Plant response rating, Bermudagrass", "setting": "[6]; 125 g ai/ha, scale 0-100", "result": 90}, {"measurement": "Plant response rating, Bermudagrass", "setting": "[6]; 250 g ai/ha, scale 0-100", "result": 95}, {"measurement": "Plant response rating, Bermudagrass", "setting": "[6]; 500 g ai/ha, scale 0 to 100", "result": 100}, {"measurement": "Plant response rating, Johnsongrass", "setting": "[7]; 62 g ai/ha, scale 0-100", "result": 60}, {"measurement": "Plant response rating, Johnsongrass", "setting": "[7]; 125 g ai/ha, scale 0-100", "result": 75}, {"measurement": "Plant response rating, Johnsongrass", "setting": "[7]; 250 g ai/ha, scale 0-100", "result": 85}, {"measurement": "Plant response rating, Johnsongrass", "setting": "[7]; 500 g ai/ha, scale 0 to 100", "result": 95}, {"measurement": "Plant response rating, Quackgrass", "setting": "[8]; 62 g ai/ha, scale 0-100", "result": 60}, {"measurement": "Plant response rating, Quackgrass", "setting": "[8]; 125 g ai/ha, scale 0-100", "result": 90}, {"measurement": "Plant response rating, Quackgrass", "setting": "[8]; 250 g ai/ha, scale 0-100", "result": 100}, {"measurement": "Plant response rating, Quackgrass", "setting": "[8]; 500 g ai/ha, scale 0 to 100", "result": 100}, {"measurement": "Plant response rating, Chickweed", "setting": "[9]; 62 g ai/ha, scale 0-100", "result": 100}, {"measurement": "Plant response rating, Chickweed", "setting": "[9]; 125 g ai/ha, scale 0-100", "result": 100}, {"measurement": "Plant response rating, Chickweed", "setting": "[9]; 250 g ai/ha, scale 0-100", "result": 100}, {"measurement": "Plant response rating, Chickweed", "setting": "[9]; 500 g ai/ha, scale 0 to 100", "result": 100}, {"measurement": "Plant response rating, Ryegrass, Italian", "setting": "[10]; 62 g ai/ha, scale 0-100", "result": 30}, {"measurement": "Plant response rating, Ryegrass, Italian", "setting": "[10]; 125 g ai/ha, scale 0-100", "result": 60}, {"measurement": "Plant response rating, Ryegrass, Italian", "setting": "[10]; 250 g ai/ha, scale 0-100", "result": 100}, {"measurement": "Plant response rating, Ryegrass, Italian", "setting": "[10]; 500 g ai/ha, scale 0 to 100", "result": 100}, {"measurement": "Plant response rating, Black Mustard", "setting": "[11]; 62 g ai/ha, scale 0-100", "result": 95}, {"measurement": "Plant response rating, Black Mustard", "setting": "[11]; 125 g ai/ha, scale 0-100", "result": 95}, {"measurement": "Plant response rating, Black Mustard", "setting": "[11]; 250 g ai/ha, scale 0-100", "result": 100}, {"measurement": "Plant response rating, Black Mustard", "setting": "[11]; 500 g ai/ha, scale 0 to 100", "result": 100}, {"measurement": "Plant response rating, Prickly Sida", "setting": "[12]; 62 g ai/ha, scale 0-100", "result": 85}, {"measurement": "Plant response rating, Prickly Sida", "setting": "[12]; 125 g ai/ha, scale 0-100", "result": 100}, {"measurement": "Plant response rating, Prickly Sida", "setting": "[12]; 250 g ai/ha, scale 0-100", "result": 100}, {"measurement": "Plant response rating, Prickly Sida", "setting": "[12]; 500 g ai/ha, scale 0 to 100", "result": 100}, {"measurement": "Plant response rating, Mallow", "setting": "[13]; 62 g ai/ha, scale 0-100", "result": 100}, {"measurement": "Plant response rating, Mallow", "setting": "[13]; 125 g ai/ha, scale 0-100", "result": 100}, {"measurement": "Plant response rating, Mallow", "setting": "[13]; 250 g ai/ha, scale 0-100", "result": 100}, {"measurement": "Plant response rating, Mallow", "setting": "[13]; 500 g ai/ha, scale 0 to 100", "result": 100}, {"measurement": "Plant response rating, Spiderwort", "setting": "[14]; 62 g ai/ha, scale 0-100", "result": 100}, {"measurement": "Plant response rating, Spiderwort", "setting": "[14]; 125 g ai/ha, scale 0-100", "result": 100}, {"measurement": "Plant response rating, Spiderwort", "setting": "[14]; 250 g ai/ha, scale 0-100", "result": 100}, {"measurement": "Plant response rating, Spiderwort", "setting": "[14]; 500 g ai/ha, scale 0 to 100", "result": 100}]}]}
